Patent publication US8435978B2, “Substituted sulfonamide compounds” (Gruenenthal GmbH, priority 2006, dated 2013)
Structures can show the parent of a compound that is named as a salt. Where two headings read alike, the source gives them in different places.

What was measured:
[1] = target: T1, human B1R receptor (Homo sapiens, UniProt P46663); assay: Functional study on the bradykinin receptor 1 (B1R), FLIPR Ca2+ assay, hB1R cells; assay type: cell-based; conditions: agonist Lys-Des-Arg9-bradykinin 0.5 nM, % inhibition compared with the maximum achievable inhibition, read-out: B1R Antagonism, human [10 μM] % Inhibition
T1 construct: host or cells: CHO K1 cells (Chinese hamster ovary), stably transfected
T1 sequence (P46663 1-353): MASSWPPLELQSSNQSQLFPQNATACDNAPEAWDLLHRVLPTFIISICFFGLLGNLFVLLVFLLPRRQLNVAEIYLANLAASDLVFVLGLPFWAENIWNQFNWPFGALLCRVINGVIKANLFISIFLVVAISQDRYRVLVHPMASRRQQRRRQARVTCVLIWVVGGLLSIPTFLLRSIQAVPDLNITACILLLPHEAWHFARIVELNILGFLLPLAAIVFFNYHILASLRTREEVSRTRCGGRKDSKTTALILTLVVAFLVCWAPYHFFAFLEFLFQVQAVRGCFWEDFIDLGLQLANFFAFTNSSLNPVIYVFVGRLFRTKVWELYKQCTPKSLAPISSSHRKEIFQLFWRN
Summary of the method: (§1)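 CHO K1 cells stably expressing human or rat B1R were loaded with Fluo-4 and read on a FLIPR (ex 488/em 540 nm, peak fluorescence). Test compounds at 10 μM were added first, then after 10 min agonist: Lys-Des-Arg9-bradykinin 0.5 nM for hB1R, Des-Arg9-bradykinin 100 nM for rB1R; % inhibition versus maximum inhibition.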

[2] = target: T2, B1R receptor of the rat (Rattus norvegicus, UniProt P97583); assay: Functional study on the bradykinin receptor 1 (B1R), FLIPR Ca2+ assay, rB1R cells; assay type: cell-based; conditions: agonist Des-Arg9-bradykinin 100 nM, % inhibition compared with the maximum achievable inhibition, read-out: B1R Antagonism, rat [10 μM] % Inhibition
T2 construct: host or cells: CHO K1 cells (Chinese hamster ovary), stably transfected
T2 sequence (P97583 1-337): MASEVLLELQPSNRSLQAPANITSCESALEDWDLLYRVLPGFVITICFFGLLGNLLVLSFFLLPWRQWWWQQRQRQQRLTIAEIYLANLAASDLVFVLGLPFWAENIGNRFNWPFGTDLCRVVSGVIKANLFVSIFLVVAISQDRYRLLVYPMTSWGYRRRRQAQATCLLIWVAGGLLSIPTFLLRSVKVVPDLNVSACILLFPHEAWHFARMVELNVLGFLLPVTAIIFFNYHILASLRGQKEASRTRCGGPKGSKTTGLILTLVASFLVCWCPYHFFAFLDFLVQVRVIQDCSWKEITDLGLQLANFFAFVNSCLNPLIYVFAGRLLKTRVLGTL
Summary of the method: as §1

| SMILES | inhibition at 10 µM ([1]; CHO-K1, test substance 10 μM) [%] | inhibition at 10 µM ([2]; CHO-K1, test substance 10 μM) [%] | inhibition at 10 µM ([1]; test substance 10 μM, hB1R CHO K1 cells) [%] | inhibition at 10 µM ([2]; test substance 10 μM, rB1R CHO K1 cells) [%] |
| --- | --- | --- | --- | --- |
| COc1cccc(N2CCN(C(=O)COCC3CCCCN3S(=O)(=O)c3c(C)cc(OC)cc3C)CC2)c1 (stereo not shown) [Example 288, 2-((1-(4-methoxy-2,6-dimethylphenylsulfonyl)piperidin-2-yl)methoxy)-1-(4-(3-methoxyphenyl)piperazin-1-yl)ethanone] | 102 | 93.3 |  |  |
| COc1cc(C)c(S(=O)(=O)N2CCCCC2COCC(=O)N2CCC(N3CCn4ncnc4C3)CC2)c(C)c1 (stereo not shown) [Example 145, 1-(4-(5,6-dihydro-[1,2,4]triazolo[1,5-a]pyrazin-7(8H)-yl)piperidin-1-yl)-2-((1-(4-methoxy-2,6-dimethylphenylsulfonyl)piperidin-2-yl)methoxy)ethanone] | 99.4 | 98.6 |  |  |
| CN1CCC(N2CCN(C(=O)COCC3CCCCN3S(=O)(=O)c3ccccc3C(F)(F)F)CC2)CC1 (stereo not shown) [Example 571, 1-(4-(1-methylpiperidin-4-yl)piperazin-1-yl)-2-((1-(2-(trifluoromethyl)phenylsulfonyl)piperidin-2-yl)methoxy)ethanone] | 104 | 100 |  |  |
| Cc1cc(C)c(S(=O)(=O)N2Cc3ccccc3CC2COCC(=O)NCc2cccc(N3CCOCC3)c2)c(C)c1 (stereo not shown) [Example 50, N-(3-morpholin-4-yl-benzyl)-2-[2-(2,4,6-trimethyl-phenylsulfonyl)-1,2,3,4-tetrahydro-isoquinolin-3-ylmethoxy]-acetamide] | 65.7 | 50.3 |  |  |
| COc1cc(C)c(S(=O)(=O)N2CCCC2COCC(=O)N2CCN(c3ccc(C)c(C)c3)CC2)c(C)c1 (stereo not shown) [Example 347, 1-(4-(3,4-dimethylphenyl)piperazin-1-yl)-2-((1-(4-methoxy-2,6-dimethylphenylsulfonyl)pyrrolidin-2-yl)methoxy)ethanone] | 56.6 | 103 |  |  |
| COc1cc(C)c(S(=O)(=O)N2CCCC2COCC(=O)N2CCN(c3cc(Cl)ccc3C)CC2)c(C)c1 (stereo not shown) [Example 311, 1-(4-(5-chloro-2-methylphenyl)piperazin-1-yl)-2-((1-(4-methoxy-2,6-dimethylphenylsulfonyl)pyrrolidin-2-yl)methoxy)ethanone] | 94.9 | 103 |  |  |
| COc1cc(C)c(S(=O)(=O)N2CCCCC2COCC(=O)N2CCc3cnccc3C2)c(C)c1 (stereo not shown) [Example 96, 1-(3,4-dihydro-2,6-naphthyridin-2(1H)-yl)-2-((1-(4-methoxy-2,6-dimethylphenyl-sulfonyl)piperidin-2-yl)methoxy)ethanone hydrochloride] |  |  | 105 | 91.3 |

Now from value to molecule, other results behind:

| inhibition at 10 µM ([1]; CHO-K1, test substance 10 μM) [%] | inhibition at 10 µM ([2]; CHO-K1, test substance 10 μM) [%] | SMILES | inhibition at 10 µM ([1]; test substance 10 μM, hB1R CHO K1 cells) [%] | inhibition at 10 µM ([2]; test substance 10 μM, rB1R CHO K1 cells) [%] |
| --- | --- | --- | --- | --- |
| 101 | 99.4 | COc1cc(C)c(S(=O)(=O)N2CCCC2COCC(=O)N2CCN(c3ccccc3F)CC2)c(C)c1 (stereo not shown) [Example 516, 1-(4-(2-fluorophenyl)piperazin-1-yl)-2-((1-(4-methoxy-2,6-dimethylphenylsulfonyl)pyrrolidin-2-yl)methoxy)ethanone] |  |  |
| 105 | 98.6 | COc1cc(C)c(S(=O)(=O)N2CCCCC2COCC(=O)N2CCN(Cc3ccc(Cl)cc3)CC2)c(C)c1 (stereo not shown) [Example 384, 1-(4-(4-chlorobenzyl)piperazin-1-yl)-2-((1-(4-methoxy-2,6-dimethylphenylsulfonyl)piperidin-2-yl)methoxy)ethanone] |  |  |
| 78.2 | 103 | CN(C)Cc1ccc(CNC(=O)COCC2CCCCN2S(=O)(=O)c2c(Cl)cc(Cl)cc2Cl)cc1 (stereo not shown) [Example 37, N-(4-dimethylaminomethyl-benzyl)-2-[1-(2,4,6-trichloro-phenylsulfonyl)-piperidin-2-ylmethoxy]-acetamide] |  |  |
| 53.3 | 42.2 | O=C(COCC1CCCCN1S(=O)(=O)c1ccc(Cl)c(Cl)c1)NCC1CCCN(Cc2ccccc2)C1 (stereo not shown) [Example 70, N-(1-benzyl-piperidin-3-ylmethyl)-2-[1-(3,4-dichloro-phenylsulfonyl)-piperidin-2-yl-methoxy]-acetamide] |  |  |
